≈ marks a conversion by molar mass, not a printed value. Where a name gives a salt, the structure may show the parent alone.
Experiment: Solubility of ziprasidone from conjugates in phosphate buffered saline (HPLC)
Assay type: physicochemical
Settings: PBS, continuous agitation; for Solubility of ziprasidone, Sample Conc., 20 min: time point 20 min; for Solubility of ziprasidone, Sample Conc., 7 days: time point 7 days
Experimental: For the solubility determination, all conjugate samples were placed in Eppendorf tubes with 1-ml aliquot of phosphate buffered saline (PBS), pH adjusted to 7.4. At selected time points (20 minutes, 1 hour, 6 hours, 24 hours, and 7 days), 200 µl of PBS exposed to each sample was withdrawn and replaced with fresh medium. The samples were continuously agitated for the duration of the study. To prepare HPLC samples, the 200-μl samples were filtered through 0.22-μm syringe, filter membrane, diluted as needed, and injected at appropriately adjusted volume to determine ziprasidone concentration in solution.

Solubility of ziprasidone, Sample Conc., 20 min (pH 7.4)	Solubility of ziprasidone, Sample Conc., 6 hours (pH 7.4, time point 6 hours)	Solubility of ziprasidone, Sample Conc., 7 days (pH 7.4)	solubility at 24 h (phosphate buffered saline, pH 7.4, aqueous buffer, thermodynamic from solid, time point 24 hours, read-out: Solubility of ziprasidone, Sample Conc., 24 hours)	Structure (SMILES)
0.01 µg/mL	0.22 µg/mL	0.01 µg/mL	2 µg/mL (≈ 4.84 µM)	O=C1Cc2cc(CCN3CCN(c4nsc5ccccc45)CC3)c(Cl)cc2N1 [Ziprasidone Free Base, 5-[2-[4-(1,2-benzisothiazol-3-yl)-1-piperazinyl]ethyl]-6-chloro-1,3-dihydro-2H-indol-2-one]
1.46 µg/mL	–	1.31 µg/mL	–	O=C1Cc2cc(CCN3CCN(c4nsc5ccccc45)CC3)c(Cl)cc2N1 [Ziprasidone Mesylate]
